Results from paper PMC8704707 (Pharmaceuticals, 2021).
≈ marks a conversion by molar mass, not a printed value. Where “and” joins values, the source holds several entries; their conditions need not be identical. Equal values may be shown once. Read-outs that look alike come from different tables or passages of the source.

What was measured:
[1] = target: AChE from electric eel (EeAChE) (Electrophorus electricus, UniProt O42275); test: biochemical; assay type: biochemical
[2] = target: BuChE from equine serum (EqBuChE) (Equus caballus, UniProt P81908); test: biochemical; conditions: mean ± SD, n = three independent experiments; BTCh 40 µM; read-out: IC50 BuChE
[3] = tested on: methicillin-resistant Staphylococcus aureus ATCC 43300; test: Antibacterial microdilution broth method (EUCAST); assay type: cell-based; conditions: ATCC 43300 / MRSA
[4] = tested on: Klebsiella pneumoniae ATCC 10031; conditions: for MIC KP 24 h: 24 h incubation; for MIC KP 48 h: 48 h incubation
[5] = tested on: Pseudomonas aeruginosa ATCC 27853; test: Antibacterial microdilution broth method (EUCAST); assay type: cell-based
[6] = tested on: Acinetobacter baumannii ATCC 19606; test: Antibacterial microdilution broth method (EUCAST); assay type: cell-based
[7] = tested on: Staphylococcus epidermidis ATCC 12228; test: Antibacterial microdilution broth method (EUCAST); assay type: cell-based
[8] = tested on: Staphylococcus aureus ATCC 29213; test: Antibacterial microdilution broth method (EUCAST); assay type: cell-based
[9] = tested on: Escherichia coli ATCC 25922; test: Antibacterial microdilution broth method (EUCAST); assay type: cell-based
[10] = tested on: Enterococcus faecalis ATCC 29212; test: Antibacterial microdilution broth method (EUCAST); assay type: cell-based
Candida krusei ATCC 6258 = test: microbe, parasite or virus in culture; assay type: cell-based; conditions: Pichia kudriavzevii
[11] = tested on: Candida albicans ATCC 24443; test: microbe, parasite or virus in culture; assay type: cell-based
[12] = tested on: Trichophyton interdigitale ATCC 9533; test: microbe, parasite or virus in culture; assay type: cell-based
[13] = tested on: Candida parapsilosis ATCC 22019; test: microbe, parasite or virus in culture; assay type: cell-based; conditions: Lodderomyces parapsilosis
[14] = tested on: Candida tropicalis ATCC 750; test: microbe, parasite or virus in culture; assay type: cell-based
[15] = mean ± SD, n = three independent experiments, ATCh 40 µM, read-out: IC50 AChE
[16] = ATCC27853, 24 h, read-out: MIC PA 24 h
[17] = ATCC27853, 48 h, read-out: MIC PA 48 h
[18] = ATCC19606, 24 h, read-out: MIC ACI 24 h
[19] = ATCC19606, 48 h, read-out: MIC ACI 48 h
[20] = ATCC12228, 24 h, read-out: MIC SE 24 h
[21] = ATCC12228, 48 h, read-out: MIC SE 48 h
[22] = ATCC29213, 24 h, read-out: MIC SA 24 h
[23] = ATCC29213, 48 h, read-out: MIC SA 48 h
[24] = ATCC25922, 24 h, read-out: MIC EC 24 h
[25] = ATCC25922, 48 h, read-out: MIC EC 48 h
[26] = ATCC29212, 24 h, read-out: MIC EF 24 h
[27] = ATCC29212, 48 h, read-out: MIC EF 48 h
[28] = ATCC6258, 24 h, read-out: MIC CK 24 h
[29] = ATCC6258, 48 h, read-out: MIC CK 48 h
[30] = ATCC24443, 24 h, read-out: MIC CA 24 h
[31] = ATCC24443, 48 h, read-out: MIC CA 48 h
[32] = ATCC9533, 72 h, read-out: MIC TI 72 h
[33] = ATCC9533, 120 h, read-out: MIC TI 120 h
[34] = ATCC22019, 24 h, read-out: MIC CP 24 h
[35] = ATCC22019, 48 h, read-out: MIC CP 48 h
[36] = ATCC750, 24 h, read-out: MIC CT 24 h
[37] = ATCC750, 48 h, read-out: MIC CT 48 h

Sequence of AChE from electric eel (EeAChE) (O42275 24-633): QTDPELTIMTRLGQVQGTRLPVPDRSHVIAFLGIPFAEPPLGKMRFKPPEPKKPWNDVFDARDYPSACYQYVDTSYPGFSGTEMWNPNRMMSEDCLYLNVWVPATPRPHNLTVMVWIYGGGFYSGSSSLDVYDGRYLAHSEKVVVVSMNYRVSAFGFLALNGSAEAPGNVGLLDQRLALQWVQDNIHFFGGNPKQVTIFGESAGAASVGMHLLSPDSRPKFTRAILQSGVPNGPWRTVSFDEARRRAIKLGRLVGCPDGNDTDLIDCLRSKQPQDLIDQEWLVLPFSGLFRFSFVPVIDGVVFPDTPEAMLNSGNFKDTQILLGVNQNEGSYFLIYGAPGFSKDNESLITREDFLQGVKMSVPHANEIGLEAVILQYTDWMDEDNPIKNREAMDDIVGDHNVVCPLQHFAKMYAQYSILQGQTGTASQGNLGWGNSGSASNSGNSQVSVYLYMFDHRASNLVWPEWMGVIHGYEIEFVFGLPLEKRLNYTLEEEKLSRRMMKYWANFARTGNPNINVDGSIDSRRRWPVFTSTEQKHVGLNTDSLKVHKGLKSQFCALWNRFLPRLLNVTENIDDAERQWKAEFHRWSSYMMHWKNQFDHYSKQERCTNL
Sequence of BuChE from equine serum (EqBuChE) (P81908 whole entry): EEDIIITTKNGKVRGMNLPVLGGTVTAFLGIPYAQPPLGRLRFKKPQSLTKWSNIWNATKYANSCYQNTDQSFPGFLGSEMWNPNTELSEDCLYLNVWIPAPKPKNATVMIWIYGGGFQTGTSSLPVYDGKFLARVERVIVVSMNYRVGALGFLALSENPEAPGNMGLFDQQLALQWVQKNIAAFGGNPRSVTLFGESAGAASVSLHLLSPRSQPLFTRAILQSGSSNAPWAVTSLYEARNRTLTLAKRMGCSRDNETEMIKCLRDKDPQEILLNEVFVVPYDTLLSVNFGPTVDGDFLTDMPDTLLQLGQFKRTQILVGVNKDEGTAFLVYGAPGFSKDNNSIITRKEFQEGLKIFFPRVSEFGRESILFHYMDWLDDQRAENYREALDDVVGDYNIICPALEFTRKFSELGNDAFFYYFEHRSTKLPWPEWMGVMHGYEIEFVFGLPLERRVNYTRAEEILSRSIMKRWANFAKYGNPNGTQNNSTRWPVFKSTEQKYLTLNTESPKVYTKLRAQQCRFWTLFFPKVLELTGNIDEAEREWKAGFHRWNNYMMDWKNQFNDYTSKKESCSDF

Row | Compound | Selectivity AChE/BuChE [1] | IC50 [2] | MIC ([3]; 24 h, read-out: MIC MRSA 24 h) [µM] | MIC ([3]; 48 h, read-out: MIC MRSA 48 h) [µM] | MIC KP 24 h [4] [µM] | MIC KP 48 h [4] [µM] | IC50 [1, 15] [µM] | MIC [5, 16] [µM] | MIC [5, 17] [µM] | MIC [6, 18] [µM] | MIC [6, 19] [µM] | MIC [7, 20] [µM] | MIC [7, 21] [µM] | MIC [8, 22] [µM] | MIC [8, 23] [µM] | MIC [9, 24] [µM] | MIC [9, 25] [µM] | MIC [10, 26] [µM] | MIC [10, 27] [µM] | MIC (Candida krusei ATCC 6258; [28]) [µM] | further results
1 | [H]/N=C(\N)NN=Cc1cccc(Cl)c1 [Compound 1c, (E)-2-(3-Chlorobenzylidene)hydrazine-1-carboximidamide] | 1.06 | 41.5 ± 3.06 µM |  |  |  |  |  |  |  |  |  |  |  |  |  |  |  |  |  |  | IC50 [1]: 43.9 ± 0.76 µM
2 | [H]/N=C(\N)NN=Cc1ccc(Cl)cc1O [Compound 1f, (E)-2-(4-Chloro-2-hydroxybenzylidene)hydrazine-1-carboximidamide] | 1.40 | 30.6 ± 1.51 µM | 500 (≈ 106 µg/mL) | 500 (≈ 106 µg/mL) | 500 (≈ 106 µg/mL) | 500 (≈ 106 µg/mL) | 42.8 ± 1.33 | 500 (≈ 106 µg/mL) | 500 (≈ 106 µg/mL) | 500 (≈ 106 µg/mL) | 500 (≈ 106 µg/mL) | 125 (≈ 26.6 µg/mL) | 125 (≈ 26.6 µg/mL) | 500 (≈ 106 µg/mL) | 500 (≈ 106 µg/mL) | 500 (≈ 106 µg/mL) | 500 (≈ 106 µg/mL) | 500 (≈ 106 µg/mL) | 500 (≈ 106 µg/mL) |  | 
3 | [H]/N=C(\N)NN=Cc1cc(Cl)ccc1O [Compound 1g, (E)-2-(5-Chloro-2-hydroxybenzylidene)hydrazine-1-carboximidamide] | 0.83 | 45.2 ± 0.86 µM | 500 (≈ 106 µg/mL) | 500 (≈ 106 µg/mL) | 500 (≈ 106 µg/mL) | 500 (≈ 106 µg/mL) | 37.4 ± 0.73 | 500 (≈ 106 µg/mL) | 500 (≈ 106 µg/mL) | 500 (≈ 106 µg/mL) | 500 (≈ 106 µg/mL) | 62.5 (≈ 13.3 µg/mL) | 62.5 (≈ 13.3 µg/mL) | 250 (≈ 53.2 µg/mL) | 250 (≈ 53.2 µg/mL) | 500 (≈ 106 µg/mL) | 500 (≈ 106 µg/mL) | 125 (≈ 26.6 µg/mL) | 250 (≈ 53.2 µg/mL) |  | 
4 | [H]/N=C(\N)NN=Cc1c(O)cccc1Cl [Compound 1h, (E)-2-(6-Chloro-2-hydroxybenzylidene)hydrazine-1-carboximidamide] | 0.47 | 62.3 ± 1.08 µM | > 500 | > 500 | >500 | >500 | 29.5 ± 0.93 | > 500 | > 500 | 500 (≈ 106 µg/mL) | 500 (≈ 106 µg/mL) | 125 (≈ 26.6 µg/mL) | 250 (≈ 53.2 µg/mL) | 250 (≈ 53.2 µg/mL) | 500 (≈ 106 µg/mL) | > 500 | > 500 | > 500 | > 500 |  | 
5 | [H]/N=C(\N)NN=Cc1cc(I)ccc1O [Compound 1i, (E)-2-(2-Hydroxy-5-iodobenzylidene)hydrazine-1-carboximidamide] | 1.27 | < 20 µM and 19.8 µM | 125 (≈ 38 µg/mL) | 125 (≈ 38 µg/mL) | 250 (≈ 76 µg/mL) | 250 (≈ 76 µg/mL) | 25 ± 0.5 | 500 (≈ 152 µg/mL) | 500 (≈ 152 µg/mL) | 500 (≈ 152 µg/mL) | 500 (≈ 152 µg/mL) | 250 (≈ 76 µg/mL) | 250 (≈ 76 µg/mL) | 125 (≈ 38 µg/mL) | 125 (≈ 38 µg/mL) | 250 (≈ 76 µg/mL) | 250 (≈ 76 µg/mL) | 500 (≈ 152 µg/mL) | 500 (≈ 152 µg/mL) | 250 (≈ 76 µg/mL) | MIC (Candida krusei ATCC 6258; [29]): 250 µM (≈ 76 µg/mL); MIC [11, 30]: 500 µM (≈ 152 µg/mL); MIC [11, 31]: 500 µM (≈ 152 µg/mL); MIC [12, 32]: 62.5 µM (≈ 19 µg/mL); MIC [12, 33]: 125 µM (≈ 38 µg/mL); MIC [13, 34]: 250 µM (≈ 76 µg/mL); MIC [13, 35]: 250 µM (≈ 76 µg/mL); MIC [14, 36]: 500 µM (≈ 152 µg/mL); MIC [14, 37]: 500 µM (≈ 152 µg/mL)
6 | [H]/N=C(\N)NN=Cc1cc(Cl)cc(Br)c1O [Compound 1k, (E)-2-(3-Bromo-5-chloro-2-hydroxybenzylidene)hydrazine-1-carboximidamide] | 1.92 | < 20 µM and 11.7 µM | 250 (≈ 72.9 µg/mL) | 250 (≈ 72.9 µg/mL) | 250 (≈ 72.9 µg/mL) | 250 (≈ 72.9 µg/mL) | 22.4 ± 0.67 | > 500 | > 500 | > 500 | > 500 | 125 (≈ 36.4 µg/mL) | 250 (≈ 72.9 µg/mL) | 250 (≈ 72.9 µg/mL) | 250 (≈ 72.9 µg/mL) | 500 (≈ 146 µg/mL) | 500 (≈ 146 µg/mL) | 500 (≈ 146 µg/mL) | 500 (≈ 146 µg/mL) | 500 (≈ 146 µg/mL) | MIC (Candida krusei ATCC 6258; [29]): 500 µM (≈ 146 µg/mL); MIC [11, 30]: 250 µM (≈ 72.9 µg/mL); MIC [11, 31]: 500 µM (≈ 146 µg/mL); MIC [12, 32]: 125 µM (≈ 36.4 µg/mL); MIC [12, 33]: 250 µM (≈ 72.9 µg/mL); MIC [13, 34]: 500 µM (≈ 146 µg/mL); MIC [13, 35]: 500 µM (≈ 146 µg/mL); MIC [14, 36]: 500 µM (≈ 146 µg/mL); MIC [14, 37]: 500 µM (≈ 146 µg/mL)
